Read-outs that look alike come from different tables or passages of the source. Marks after values point to notes of the source that are not given here.
Experiments:
Assay type in all cases: cell-based
E. coli NCTC 8196 = assay: Broth microdilution MIC/MBC; details: Escherichia coli, NCTC8196; for MBC: E. coli NCTC 8196, 99.9% killing; for MIC: E. coli NCTC 8196, 24 h at 37° C.
Summary of the method: (§1)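 Imidazolium salts two-fold diluted in Mueller-Hinton broth over 0.0000625-1% w/v, inoculum 2×10^5 CFU/ml, aerobic 24 h at 37° C., per NCCLS. MBC: 20 μl from no-growth wells plated on MHA, 24 h, scored for 99.9% killing.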

B. cenocepacia J2315 = assay: Broth microdilution MIC/MBC; details: Burkholderia cenocepacia; for MBC: B. cenocepacia J2315, 99.9% killing; for MIC: B. cenocepacia J2315, 24 h at 37° C.
Summary of the method: as §1

E-MRSA 15 = assay: Broth microdilution MIC/MBC; details: for MBC: E-MRSA 15, 99.9% killing; for MIC: E-MRSA 15, 24 h at 37° C.
Summary of the method: as §1

C. tropicalis NCTC 7393 = assay: Broth microdilution MIC/MBC; details: Candida tropicalis, NCTC7393; for MBC: C. tropicalis NCTC 7393, 99.9% killing; for MIC: C. tropicalis NCTC 7393, 24 h at 37° C.
Summary of the method: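 NCCLS broth microdilution; MHB; salts 0.0000625–1% w/v, 2-fold; final inoculum 2×10^5 CFU/ml; 24 h, 37 °C, aerobic. MBC = 99.9% kill on MHA subculture of no-growth wells, 24 h.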

P. aeruginosa PA01 = assay: Broth microdilution MIC/MBC; details: for MIC: P. aeruginosa PA01, 24 h at 37° C.; for MBC: P. aeruginosa PA01, 99.9% killing
Summary of the method: as §1

S. aureus ATCC 29213 = assay: Broth microdilution MIC/MBC; details: Staphylococcus aureus, ATCC29213; for MBC: S. aureus ATCC 29213, 99.9% killing; for MIC: S. aureus ATCC 29213, 24 h at 37° C.
Summary of the method: as §1

K. aerogenes NCTC 7427 = assay: Broth microdilution MIC/MBC; details: Klebsiella aerogenes, NCTC7427; for MBC: K. aerogenes NCTC 7427, 99.9% killing; for MIC: K. aerogenes NCTC 7427, 24 h at 37° C.
Summary of the method: as §1

[1] = system: S. epidermidis ATCC 35984; assay: Broth microdilution MIC/MBC; details: for MIC: S. epidermidis ATCC 35984, 24 h at 37° C.; for MBC: ATCC35984, S. epidermidis ATCC 35984, 99.9% killing
Summary of the method: as §1

[2] = system: S. epidermidis ATCC 12228; assay: Broth microdilution MIC/MBC; details: Staphylococcus epidermidis, ATCC12228; for MBC: S. epidermidis ATCC 12228, 99.9% killing; for MIC: S. epidermidis ATCC 12228, 24 h at 37° C.
Summary of the method: as §1

E. coli PIII = assay: Broth microdilution MIC; details: Escherichia coli
Protocol: Broth microdilution tests were performed according to NCCLS guidelines. Serial two-fold dilutions of each imidazolium salt (from an original working solution which had been 0.22 μm sterile filtered) in Mueller-Hinton Broth (MHB) (100 μl) were prepared in 96-well micro-titre plates over the range 0.0000625-1% w/v. The inoculum to be tested was prepared by adjusting the turbidity of an actively overnight growing broth culture in MHB to an optical density at 550 nm equivalent to 1×10^8 CFU/ml. The suspension was further diluted to provide a final inoculum density of 2×10^5 CFU/ml in MHB as verified by total viable count. The inoculum to be tested (100 μl, 2×10^5 CFU ml^−1) was added to each well of the microdilution trays which were incubated aerobically for 24 h at 37° C. Positive and negative growth controls were included in every assay (6 replicates). After determining the MICs, minimum bactericidal concentrations (MBCs) were determined by spreading 20 μl of suspension from wells showing no growth onto MHA plates, which were then incubated for 24 h and examined for 99.9% killing.

[3] = Pseudomonas aeruginosa, PA01, 24 h, read-out: MIC
[4] = Staphylococcus epidermidis, ATCC35984, 24 h

| MIC (E. coli NCTC 8196) [µM] | MIC (B. cenocepacia J2315) [µM] | MIC (E-MRSA 15) [µM] | MIC (C. tropicalis NCTC 7393) [µM] | MIC (P. aeruginosa PA01; [3]) [µM] | MIC (S. aureus ATCC 29213) [µM] | MIC (K. aerogenes NCTC 7427) [µM] | MIC [1, 4] [µM] | MIC [2] [µM] | MIC (E. coli PIII) [µM] | Compound | MBC (E. coli NCTC 8196) [µM] | MBC (B. cenocepacia J2315) [µM] | MBC (E-MRSA 15) [µM] | MBC (C. tropicalis NCTC 7393) [µM] | MBC (P. aeruginosa PA01; Pseudomonas aeruginosa) [µM] | MBC (S. aureus ATCC 29213) [µM] | MBC (K. aerogenes NCTC 7427) [µM] | MBC ([1]; Staphylococcus epidermidis) [µM] | MBC [2] [µM] | also measured |
| --- | --- | --- | --- | --- | --- | --- | --- | --- | --- | --- | --- | --- | --- | --- | --- | --- | --- | --- | --- | --- |
| 321 | 1290 | 40 | 321 | > 1290 | 40 | 643 | 40 | 40 | 321 | CCCCCCCCCCn1cc[n+](C)c1.[Cl-] [C10MIMCl, 1-decyl-3-methylimidazolium chloride] | 1290 | 1290 | 321 | 321 | > 1290 | 643 | 1290 | 160 | 644 | MIC (P. aeruginosa PA01; listed as 1-alkyl-3-methylimidazolium chlorides 10): 2415* μM |
| 73 | 290 | 18 | 73 | 580 | 18 | 73 | 36 | 36 | 73 | CCCCCCCCCCCCn1cc[n+](C)c1.[Cl-] [C12MIMCl, 1-dodecyl-3-methylimidazolium chloride] | 73 | 580 | 73 | 73 | 1160 | 36 | 145 | 73 | 145 |  |
| 33 | 132 | 16 | 66 | 264 | 16 | 33 | 7.7 | 7.7 | 33 | CCCCCCCCCCCCCCn1cc[n+](C)c1.[Cl-] [C14MIMCl, 1-tetradecyl-3-methylimidazolium chloride] | 33 | 264 | 66 | 132 | 264 | 66 | 66 | 33 | 33 | MIC ([1]; listed as 1-alkyl-3-methylimidazolium chlorides 14): 7.75 µM |

Source: patent US20110144079A1, “ANTIMICROBIAL SYSTEM” (priority 2008, published 2011)
